In patent publication US5656604A, “Peptide compound and its preparation” (Fujisawa Pharmaceutical Co., Ltd., priority 1990, dated 1997):

System: rabbit thoracic aorta contraction induced by endothelin
Procedure: Thoracic aorta were isolated from freshly killed male albino rabbits (11 weeks old) and cut into 25 mm strips with the intima denuded. After removing fatty tissues, these arterial segments (2 mm width and 25 mm length) were suspended in 25 ml organ chambers filled with Krebs-Ringer solution (113 mM NaCl, 4.8 mM KCl, 2.2 mM CaCl2, 1.2 mM MgCl2, 25 mM NaHCO3, 1.2 mM KH2 PO4, 5.5 mM glucose) maintained at 37° C. and gassed with 95% O2 /5% CO2.
A preload of 0.5 g was applied after the aorta had been conditioned by application of increasing concentration of KCl. Contractions were measured as an increase in isometric tension.
Test Compound was tested against contractile response of rabbit aorta induced by endothelin (3.2×10^-9 M). […] Test Compound was added after the full contraction response induced by endothelin.

- IC50: 230 nM
SMILES: CC(C)C[C@H](NC(=O)NC1CCCCC1)C(=O)N[C@H](Cc1cn(C)c2ccccc12)C(=O)N[C@H](Cc1ccccn1)C(=O)O [A]
